{
  "source": "patent US4335244A",
  "about": "“Monolactate salts of 4'-(9-acridinylamino)methanesulfon-m-anisidide” (Bristol-Myers Company, priority 1980, dated 1982)",
  "key": {"[1]": {"test": "Reconstitution with (sterile) water", "type": "physicochemical", "procedure": "The crystalline m-AMSA monolactate hemiacetonate (10 mg) prepared according to Example 1 was dissolved in 0.5 ml sterile water in an 8.2 ml flint vial. The vial was lyophilized on a laboratory lyophilizer for 16 hours. Sterile water (0.5 ml) was added to the vial. A solution was obtained after two minutes of shaking.\n2. For reconstitution, add a sufficient amount of sterile water for\ninjection to give a 5 mg/ml mAMSA activity solution. The reconstituted"}, "[2]": {"details": "for Time for which dilute solution remains clear (in words): dilute solutions (e.g. 3-5 mg/ml) of m-AMSA, no precipitation of salt; for Stability (in words): solid form and/or upon reconstitution with water; for Time for which reconstituted solution remained clear: room temperature", "experimental": "(§1) (f) Stability: 15 mg salt was reconstituted with 10 ml sterile water."}, "[3]": {"test": "physchem", "details": "water"}, "[4]": {"test": "physchem", "details": "sterile water", "experimental": "as §1"}, "[5]": {"test": "pH of aqueous solution before lyophilization", "type": "physicochemical", "details": "180 mg in 24 ml sterile water", "procedure": "m-AMSA DL-lactate acetone solvate (180 mg; prepared in Example 6) was dissolved in 24 ml sterile water with stirring. The resulting clear (pH 4.2) solution was passed through a 1 inch 0.45 micron Millipore filter. Two ml of the filtrate was placed in an 8.2 cc flint vial and the solution was lyophilized for 24 hours."}, "[6]": {"system": "animal tumor systems", "details": "Cain, et al., Europ. J. Cancer 10:539-549 (1974); cited from earlier work"}, "[7]": {"details": "cited from earlier work"}},
  "note": "Values joined by “and” are separate entries in the source; they are usually repeats but may differ in a detail not shown here. Equal entries are not always repeated. Where two headings read alike, the source gives them in different places.",
  "data": [
    {"smiles": "COc1cc(NS(C)(=O)=O)ccc1Nc1c2ccccc2nc2ccccc12", "note": "[Example 2, Lyophilized L(+)-Monolactate Hemiacetonate of m-AMSA]", "values": [
      {"measurement": "Shaking time to obtain a solution on reconstitution of lyophilized product", "setting": "[1]; 10 mg salt lyophilized, 0.5 ml sterile water", "result": "two"}
    ]},
    {"smiles": "COc1cc(NS(C)(=O)=O)ccc1Nc1c2ccccc2nc2ccccc12", "note": "[Example 1, L(+)-Monolactate Hemiacetonate of m-AMSA]", "values": [
      {"measurement": "Time for which reconstituted solution was stable", "setting": "[2]; 15 mg salt reconstituted with 10 ml sterile water", "result": "at least 24 hours"},
      {"measurement": "Time for which dilute solution remains clear (in words)", "setting": "[2]", "result": "at least several hours"},
      {"measurement": "Stability (in words)", "setting": "[2]", "result": "excellent stability both in solid form and upon reconstitution with water"},
      {"measurement": "solubility", "setting": "[3]", "result": 5, "unit": "mg/mL"},
      {"measurement": "degraded at 336 h", "setting": "[4]", "result": "< 6", "unit": "%"}
    ]},
    {"smiles": "COc1cc(NS(C)(=O)=O)ccc1Nc1c2ccccc2nc2ccccc12", "note": "[Example 11]", "values": [
      {"measurement": "Concentration of solution obtainable on reconstitution with water (m-AMSA activity)", "setting": "[1]; lyophilized solid, at least 3-5 mg/ml m-AMSA activity, procedure of Example 7 'if repeated'", "result": "3000 to 5000", "unit": "µg/mL"}
    ]},
    {"smiles": "COc1cc(NS(C)(=O)=O)ccc1Nc1c2ccccc2nc2ccccc12", "note": "[Example 4, m-AMSA Mono DL-Lactate Acetone Solvate]", "values": [
      {"measurement": "Concentration of solution obtained on reconstitution with water", "setting": "[1]", "result": "5000 to 7500", "unit": "µg/mL"},
      {"measurement": "Concentration of reconstituted aqueous solution readily obtained", "setting": "[1]; 3 minutes shaking at 75° F.", "result": "5000 µg/mL and 7500 µg/mL and 10000 µg/mL"},
      {"measurement": "Concentration of solution obtained on reconstitution with water", "setting": "[1]; listed as Example 5", "result": 7500, "unit": "µg/mL"},
      {"measurement": "pH of solution", "setting": "[5]", "result": 4.2},
      {"measurement": "Time for which aqueous solution remained clear", "setting": "[2]; 5 mg/ml, room temperature (17° C.)", "result": "at least 16 hours"},
      {"measurement": "Time for which aqueous solution remained clear", "setting": "[2]; 7.5 mg/ml, 17° C., listed as Example 5", "result": "at least 16 hours"},
      {"measurement": "Time for which reconstituted solution remained clear", "setting": "[2]; 7.5 mg/ml", "result": 24, "unit": "h"},
      {"measurement": "Time for which reconstituted solution remained clear", "setting": "[2]; 10 mg/ml", "result": 24, "unit": "h"},
      {"measurement": "Time for which reconstituted solution remained clear", "setting": "[2]; 15 mg/ml", "result": 6, "unit": "h"},
      {"measurement": "Time for which reconstituted solution remains clear", "setting": "[2]; 5-7.5 mg/ml, 17° C.", "result": "at least 6 hours"},
      {"measurement": "Time for which dilute solution remains clear (in words)", "setting": "[2]", "result": "at least several hours"},
      {"measurement": "Stability (in words)", "setting": "[2]", "result": "excellent stability both in solid form and upon reconstitution with water"},
      {"measurement": "solubility", "setting": "[3]; room temperature", "result": 25, "unit": "mg/mL"}
    ]},
    {"smiles": "COc1cc(NS(C)(=O)=O)ccc1Nc1c2ccccc2nc2ccccc12", "note": "[Example 7]", "values": [
      {"measurement": "Concentration of solution obtained on reconstitution with water", "setting": "[1]", "result": 7500, "unit": "µg/mL"},
      {"measurement": "Time for which aqueous solution remained clear", "setting": "[2]; 7.5 mg/ml, 17° C.", "result": "at least 6 hours"},
      {"measurement": "Time for which shaken solution was clear", "setting": "[2]; 7.5 mg/ml, low speed horizontal shaker", "result": "up to 5 hours"}
    ]},
    {"smiles": "COc1cc(NS(C)(=O)=O)ccc1Nc1c2ccccc2nc2ccccc12", "note": "[Example 10, m-AMSA D(-)-Monolactate Hemiacetonate]", "values": [
      {"measurement": "Time for which dilute solution remains clear (in words)", "setting": "[2]", "result": "at least several hours"},
      {"measurement": "Stability (in words)", "setting": "[2]", "result": "excellent stability both in solid form and upon reconstitution with water"}
    ]},
    {"smiles": "COc1cc(NS(C)(=O)=O)ccc1Nc1c2ccccc2nc2ccccc12", "note": "[m-AMSA, 4'-(9-acridinylamino)methanesulfon-m-anisidide]", "values": [
      {"measurement": "Incompatibility of solutions with ions", "setting": "[2]; chloride, sulfate and phosphate ions, insoluble salts form", "result": "incompatible with chloride, sulfate and phosphate"},
      {"measurement": "Antitumor activity in animal tumor systems", "setting": "[6]", "result": "significant antitumor activity in animal tumor systems"},
      {"measurement": "Clinical evaluation result", "setting": "[7]", "result": "very promising initial results"}
    ]}
  ]
}
